1 compound from article PMC2229473 (The Journal of General Physiology, 1999) can be followed below.

For experiment [1], the target named is T1, KcsA K^+ channel (Streptomyces lividans, UniProt P0A334, Y82C).
T1 sequence (P0A334 1-160 Y82C): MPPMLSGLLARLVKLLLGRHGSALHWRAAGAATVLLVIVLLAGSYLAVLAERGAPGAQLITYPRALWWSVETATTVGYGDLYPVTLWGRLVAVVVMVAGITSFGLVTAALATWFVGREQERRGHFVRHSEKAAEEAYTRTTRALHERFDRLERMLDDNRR
Nature of the experiment: single-channel recording in planar lipid bilayer, block of open-channel current. In kind it is biochemical.

For experiment [2], the target named is T2, KcsA K^+ channel (Streptomyces lividans, UniProt P0A334).
T2 sequence (P0A334 1-160): T1 sequence (P0A334 1-160 Y82C)
The experiment is described as above. In kind it is biochemical.

On to `CC[N+](CC)(CC)CC` [TEA, tetraethylammonium], for which the Ki – broadly, the equilibrium dissociation constant of an inhibitor or competing ligand from its target – on KcsA K^+ channel [1] is 23 mM; on KcsA K^+ channel [2], 3.2 mM.
